This is an account of results in patent US20070219237A1, “Chromane Derivatives” (Pfizer Inc, priority 2006, published 2007).

Data set [1] has as its target T1, porcine gastric H^+/K^+-ATPase (Sus scrofa, UniProt P19156).
T1 construct: prepared from mucous membrane in fresh porcine stomachs by homogenization; from tissue; host or cells: gastric vesicles from mucous membrane of fresh porcine stomachs
Put plainly: Ion-tight porcine gastric H+/K+-ATPase inhibition. It counts as biochemical. To be noted: ion-tight gastric vesicles, 150 mM KCl, 15 μM valinomycin, pH 7.4, 37° C., 30 minutes; read-out: IC50 of the inhibitory activity. The procedure: The porcine gastric vesicles for Porcine gastric H^+/K^+-ATPase inhibition assays were prepared from mucous membrane in fresh porcine stomachs by homogenization with a tight-fitted polytetrafluoroethylene (Teflone®) homogenizer in 0.25 M sucrose at 4° C. The crude pellet was removed with centrifugation at 20,000 g for 30 min. Then supernatant was centrifuged at 100,000 g for 30 min. The resulting pellet was re-suspended in 0.25 M sucrose, and then subjected to density gradient centrifugation at 132,000 g for 90 min. The gastric vesicles were collected from interface on 0.25 M sucrose layer containing 7% FicollTM PM400(Amersham Biosciences). This procedure was performed in a cold room.
Ion-tight porcine gastric H^+/K^+-ATPase inhibition was measured according to the modified method described in Biochemical Pharmacology, 1988, 37, 2231-2236.
The isolated vesicles were kept in deep-freezer until use. For enzyme assay, vesicles were diluted with 3 mM MgSO4 containing 5 mM Tris (pH 7.4 at 37° C.).
Enzyme reaction was performed incubating 150 mM KCl, 3 mM Na2ATP, 3 mM MgSO4, 15 μM valinomycin and 3.0 μg of vesicles for 30 minutes at 37° C. in a final 60 μl of reaction mixture (5mM Tris, pH 7.4) with or without the test compound. Enzyme reaction was stopped by adding 10% SDS. Released inorganic phosphate from ATP was detected by incubating with mixture of 1 part of 35 mM ammonium molybdate tetrahydrate in 15 mM Zinc acetate hydrate and 4 parts of 10% ascorbic acid (pH 5.0), resulting in phosphomolybdate, which has optical density at 750 nm.

By melting point is commonly meant the temperature, or range, at which the solid turns liquid. One may read the IC50 as the midpoint of a concentration-inhibition curve.

T1 sequence (P19156 2-1034 limits assumed): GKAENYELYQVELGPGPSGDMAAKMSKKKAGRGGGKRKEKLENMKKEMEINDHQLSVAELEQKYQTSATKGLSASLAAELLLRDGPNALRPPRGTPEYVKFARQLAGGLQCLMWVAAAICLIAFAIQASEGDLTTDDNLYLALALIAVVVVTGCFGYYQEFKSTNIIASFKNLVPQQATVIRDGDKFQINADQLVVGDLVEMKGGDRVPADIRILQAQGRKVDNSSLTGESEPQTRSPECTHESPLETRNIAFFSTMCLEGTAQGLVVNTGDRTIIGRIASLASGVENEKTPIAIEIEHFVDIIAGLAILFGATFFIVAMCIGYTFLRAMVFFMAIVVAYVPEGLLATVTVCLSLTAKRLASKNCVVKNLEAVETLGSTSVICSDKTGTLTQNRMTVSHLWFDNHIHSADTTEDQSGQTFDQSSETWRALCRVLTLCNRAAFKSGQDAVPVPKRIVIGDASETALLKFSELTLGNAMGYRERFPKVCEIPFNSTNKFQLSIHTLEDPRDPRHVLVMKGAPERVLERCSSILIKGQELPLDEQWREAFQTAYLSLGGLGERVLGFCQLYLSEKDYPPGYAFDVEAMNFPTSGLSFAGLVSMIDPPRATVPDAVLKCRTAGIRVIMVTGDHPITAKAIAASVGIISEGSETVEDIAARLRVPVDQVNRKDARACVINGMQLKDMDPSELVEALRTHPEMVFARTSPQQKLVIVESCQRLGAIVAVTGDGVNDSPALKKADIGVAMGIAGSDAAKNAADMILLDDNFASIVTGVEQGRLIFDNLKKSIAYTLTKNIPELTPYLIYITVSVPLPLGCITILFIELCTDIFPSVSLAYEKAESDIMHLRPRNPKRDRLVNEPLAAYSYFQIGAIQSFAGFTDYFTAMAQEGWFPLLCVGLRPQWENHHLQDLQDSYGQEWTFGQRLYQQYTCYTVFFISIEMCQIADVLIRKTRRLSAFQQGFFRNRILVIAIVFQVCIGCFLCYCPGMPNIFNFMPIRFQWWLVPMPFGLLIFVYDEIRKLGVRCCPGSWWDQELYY
T1 sequence (P18434 whole entry partner): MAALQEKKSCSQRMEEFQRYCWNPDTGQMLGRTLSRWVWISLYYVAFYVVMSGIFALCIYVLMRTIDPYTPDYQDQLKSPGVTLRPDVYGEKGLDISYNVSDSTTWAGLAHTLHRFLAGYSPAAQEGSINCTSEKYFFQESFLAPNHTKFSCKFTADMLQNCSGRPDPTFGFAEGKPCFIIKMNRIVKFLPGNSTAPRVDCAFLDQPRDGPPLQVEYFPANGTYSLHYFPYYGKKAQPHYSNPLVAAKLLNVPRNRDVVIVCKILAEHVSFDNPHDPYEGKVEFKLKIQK

Turning to `Cc1nc2c(N[C@H]3CCOc4cc(F)cc(F)c43)cc(C(=O)N(C)C)cn2c1CO` (single isomer, unassigned) [Example 3-3], the melting point was found to be 186 °C.
In the case of `Cc1nc2c(NC3CCOc4cc(F)cc(F)c43)cc(C(=O)N3CCOCC3)cn2c1CO` (racemic) [Example 8-1], in data set [1], the half-maximal inhibitory concentration (IC50) amounted to 55 nM.
The same measure, in the same setting: under `Cc1nc2c(NC3CCOc4ccccc43)cc(C(=O)N3CCOCC3)cn2c1CO` (racemic) [Example 7-1, [8-(3,4-Dihydro-2H-chromen-4-ylamino)_-2-methyl-6-(morpholin-4-ylcarbonyl)imidazo[1,2-a]pyridin-3-yl]methanol] stands 140 nM; under `Cc1cccc2c1[C@@H](Nc1cc(C(=O)N(C)C)cn3c(CO)c(C)nc13)CCO2` (single isomer, unassigned) [Example 1-2], 84 nM.
Consider `Cc1nc2c(NC3CCOc4ccccc43)cc(C(=O)N(C)C)cn2c1CO` (racemic) [Example 2-1, 8-(3,4-Dihydro-2H-chromen-4-ylamino)-3-(hydroxymethyl)-N,N,2-trimethylimidazo[1,2a]pyridine-6-carboxamide], for which, in data set [1], the IC50 was found to be 75 nM.
Turning to `Cc1nc2c(NC3CCOc4cc(F)cc(F)c43)cc(C(=O)N3CCOCC3)cn2c1CO` (single isomer, unassigned; (-)) [Example 8-3, (−)-[8-[5,7-Difluoro-3,4-dihydro-2H-chromen-4-yl)amino]-2-methyl-6-(morpholin-4-ylcarbonyl)imidazo[1,2-a]pyridin-3-ylmethanol], in data set [1], the 50% inhibitory concentration (IC50) came out at 52 nM.
Regarding `Cc1nc2c(NC3CCOc4cccc(F)c43)cc(C(=O)N3CCOCC3)cn2c1CO` (racemic) [Example 9-1, [8-[(5-Fluoro-3,4-dihydro-2H-chromen-4-yl)amino]-2-methyl-6-(morpholin-4-ylcarbonyl)imidazo[1,2-a]pyridin-3-yl]methanol], in data set [1], the IC50 was 47 nM.
As to `Cc1nc2c(NC3CCOc4cccc(F)c43)cc(C(=O)N(C)C)cn2c1CO` (single isomer, unassigned; (+)) [Example 4-3, (+)-8-[(5-Fluoro-3,4-dihydro-2H-chromen-4yl)-amino]-3-(hydroxymethyl)-N,N,2-trimethylimidazo [1,2-a]pyridine-6-carboxamide], the IC50 in data set [1] is 30 nM.
Same read-out and setting: next, `Cc1nc2c(NC3CCOc4cccc(F)c43)cc(C(=O)N3CCOCC3)cn2c1CO` (single isomer, unassigned; (-)) [Example 9-3]: 61 nM; `Cc1cccc2c1C(Nc1cc(C(=O)N(C)C)cn3c(CO)c(C)nc13)CCO2` (single isomer, unassigned) [Example 1-3]: 89 nM.
On the same count and under the same terms, under `Cc1nc2c(NC3CCOc4ccccc43)cc(C(=O)N(C)C)cn2c1CO` (single isomer, unassigned; (-)) [Example 2-3] stands 67 nM; under `Cc1nc2c(NC3CCOc4cc(F)cc(F)c43)cc(C(=O)N3CCOCC3)cn2c1CO` (single isomer, unassigned; (+)) [Example 8-2, (+)-[8-[(5,7-Difluoro-3,4-dihydro-2H-chromen-4-yl)amino]-2-methyl-6-(morpholin-4-ylcarbonyl)imidazo[1,2-a]pyridin-3-yl]methanol], 40 nM.
Still for that read-out and setting: under `Cc1nc2c(NC3CCOc4ccccc43)cc(C(=O)N3CCOCC3)cn2c1CO` (single isomer, unassigned; (+)) [Example 7-3, (+)-[8-(3,4-Dihydro-2H-chromen-4-ylamino)-2-methyl-6-(morpholin-4-ylcarbonyl)imidazo[1,2-a]pyridin-3-yl]methanol] stands 110 nM; under `Cc1nc2c(NC3CCOc4cccc(F)c43)cc(C(=O)N3CCOCC3)cn2c1CO` (single isomer, unassigned; (+)) [Example 9-2], 72 nM.
Consider `Cc1cccc2c1C(Nc1cc(C(=O)N3CCOCC3)cn3c(CO)c(C)nc13)CCO2` (single isomer, unassigned; (+)) [Example 6-3, (+)-[2-Methyl-8-[(5-methyl-3,4-dihydro-2H-chromen-4-yl)amino]-6-(morpholin-4-ylcarbonyl)imidazo[1,2-a]pyridin-3-yl]methanol], for which the IC50 in data set [1] was 61 nM.
For the compound `Cc1cccc2c1C(Nc1cc(C(=O)N3CCOCC3)cn3c(CO)c(C)nc13)CCO2` (single isomer, unassigned; (-)) [Example 6-2], the IC50 in data set [1] came to 43 nM.
Consider `Cc1nc2c(NC3CCOc4cc(F)cc(F)c43)cc(C(=O)N(C)C)cn2c1CO` (single isomer, unassigned) [Example 3-3], for which the IC50 in data set [1] is 41 nM.
Still for that read-out and setting: next, `Cc1nc2c(NC3CCOc4ccccc43)cc(C(=O)N(C)C)cn2c1CO` (single isomer, unassigned; (+)) [Example 2-2, (+)-8-(3,4-Dihydro-2H-chromen-4-ylamino)-3-(hydroxymethyl)-N,N,2-trimethylimidazo[1,2-a]pyridine-6-car boxamide]: 61 nM; `Cc1nc2c(NC3CCOc4cc(F)cc(F)c43)cc(C(=O)N(C)C)cn2c1CO` (single isomer, unassigned) [Example 3-2]: 37 nM.
As for `Cc1nc2c(NC3CCOc4cccc(F)c43)cc(C(=O)N(C)C)cn2c1CO` (single isomer, unassigned; (-)) [Example 4-2, (−)-8-[(5-Fluoro-3,4-dihydro-2H-chromen-4-yl)amino]-3-(hydroxymethyl)-N,N,2-trimethylimidazo [1,2a]pyridine-6-carboxamide], the half-maximal inhibitory concentration (IC50) in data set [1] turned out to be 29 nM.
Still for that read-out and setting: under `Cc1nc2c(NC3CCOc4ccccc43)cc(C(=O)N3CCOCC3)cn2c1CO` (single isomer, unassigned; (-)) [Example 7-2, (−)-[f8-(3,4-Dihydro-2H-chromen-4-ylamino)-2-methyl-6-(morpholin-4-ylcarbonyl)imidazo[1,2-a]pyridin-3-yl]methanol] stands 96 nM.
